Earlier results, collected in patent US20090281186A1, “Composition and Method for Reducing Stress” (priority 2008, published 2009).

Legend:
[1] = system: dopamine release from the corpus straitum; serotonin levels in the hippocampus and thalamus; conditions: rats, L-theanine administration
[2] = sixteen individuals; acute administration; 200 mg of L-theanine or 1 mg of alprazolam vs placebo
[3] = inositol compared with fluvoxamine
[4] = 21 patients; 12 grams of inositol per day for four weeks; compared to placebo

For `CCNC(=O)CCC(N)C(=O)O` [L-theanine, 2-amino-4-(ethylcarbamoyl)butyric acid], the “dopamine release from the corpus straitum” value [1] is listed as “increase dopamine release”, the “serotonin levels in the hippocampus and thalamus” value [1] is listed as “increase serotonin levels” and the “acute stress responses (psychological and physiological measures)” value (oral administration, 200 mg of L-theanine) is listed as “acute stress responses were reduced”. The “perception of stress (psychological measures)” value (twelve individuals, 200 mg of L-theanine before or midway through the task vs placebo) was “greater increase in the perception of stress in the placebo condition compared to the other conditions”, the “heart rates during the stress task” value (twelve individuals, 200 mg of L-theanine vs placebo) was “heart rates were higher in the placebo condition compared to the L-theanine groups” and the “effect on subjects during the experimental relaxed state” value [2] was “caused a tranquil state”.
For `Cc1nnc2n1-c1ccc(Cl)cc1C(c1ccccc1)=NC2` [alprazolam, reference compound], the “effect on subjects during the experimental relaxed state” value [2] is listed as “had no effect”.
For `O[C@H]1[C@H](O)[C@@H](O)[C@H](O)[C@@H](O)[C@H]1O` [inositol, cis-1,2,3,5-trans-4,6-cyclohexanehexol], the “effectiveness in treating panic disorders” value [3] is given as “equally effective” and the “severity and frequency of panic attacks” value [4] is given as “significantly decreased”.
